Assay results taken from patent US5650442A (priority 1994, dated 1997).

Tests used:
[1] = system: Chinese hamster V79 lung fibroblasts; assay: Radiation survival of hypoxic V79 cells (metabolism-mediated oxygen depletion), clonogenic assay, SER; type: cell-based; settings: hypoxic; for SER: 1% surviving fraction level
Experimental: (§1) Chinese hamster V79 lung fibroblasts were cultured in F12 medium supplemented with 10% fetal calf serum and antibiotics. […] The assay system was specifically designed to evaluate radiation sensitivity of cells exposed to radiation under both aerobic and hypoxic conditions (Mitchell et al., Radiat. Res., 96, 422-428 (1983); Russo et al., Radiat. Res., 103, 232-239 (1985); and DeGraff et al., Int. J. Radiat. Oncol. Biol. Phys., 16, 1021-1024 (1989)).
When cultured cells were exposed to DEA/NO in subsequent examples, DEA/NO in F12 medium with 10 mM HEPES buffer, pH 7.0, was used. […] Control cells in subsequent examples were exposed to 0.02N NaOH, instead of DEA/NO.
The induction of hypoxia in dense cell suspensions by metabolism-mediated oxygen depletion was carried out as described by Mitchell et al. (supra) and Phillips et al. (Int. J. Radiat. Oncol. Biol. Phys., 12, 1627-1635 (1986)). Briefly, stock cultures of exponentially growing Chinese hamster V79 lung fibroblasts in 850 cm^2 roller bottles were trypsinized, rinsed with medium, and counted. Samples of 10^8 cells were then placed in 15 ml centrifuge tubes, centrifuged at 1,000 rpm for 5 min at 25° C., and rinsed once with medium or medium containing DEA/NO (final concentrations ranging from 0.1-2.0 mM), nitrite, diethylamine, or DEA/NO that had been allowed to decompose in full medium overnight at 37° C.
The cell suspension was taken up into a 3 ml glass syringe with a 18 gauge spinal needle. Air bubbles were removed, and a 25 gauge needle was fitted onto the syringe. The syringe was rotated by hand at room temperature for 20 min to allow for cellular metabolic oxygen consumption. The syringe was then placed in a lucite block and irradiated. After a given dose of radiation, 1-3 drops of cell suspension were discarded, and 1-2 drops were collected in tubes containing drug-free medium. In this manner an entire hypoxic survival curve for a given treatment condition can be obtained from a single syringe.
Hypoxic Chinese hamster V79 lung fibroblasts of Example 2 were irradiated at room temperature with 4 MeV photons from a linear accelerator at a dose rate of 1.5 Gy/min. Full electron equilibrium was ensured for all irradiations.
Following irradiation, the various cell suspensions were pipetted, counted, diluted, and plated for macroscopic colony formation. Each dose determination was plated in triplicate and experiments were repeated a minimum of two times. Plates were incubated for seven days, after which colonies were fixed with methanol/acetic acid (3:1), stained with crystal violet, and counted. Colonies containing >50 cells were scored and graphed as FIGS. 1-3. Error bars in the graphs represent the standard deviation of the mean and are shown when larger than the symbol used to designate a data point. Survival curve data were fitted using a linear quadratic model of Albright (Radiat. Res., 112, 331-340 (1987)), and the survival curves shown in the figures represent the best fit curves for the experimental data points. Sensitizer enhancement ratios (SER) were calculated by dividing the radiation dose for control hypoxic conditions by the radiation dose for various agents under hypoxic conditions at the 1% surviving fraction level.
Radiation survival curves for V79 cells exposed to varying concentrations of DEA/NO and various DEA/NO decomposition products under hypoxic conditions (metabolic hypoxia induction) are shown in FIG. 1A, which is a graph of the surviving fraction versus dose (Gy).

[2] = system: human MCF7 breast cancer cells; assay: Chemosensitization of human breast cancer cells to melphalan or thiotepa, clonogenic assay; settings: 1 hr, 37° C.; for DEA/NO enhancement ratio at the 10% surviving fraction level: 1 mM DEA/NO
Experimental: FIG. 10 is a graph of surviving fraction versus concentration (μg/ml) of melphalan in the absence or presence of 1 mMDEA/NO or released DEA/NO showing the survival curves for human MCF7 breast cancer cells exposed to melphalan in the absence or presence of 1 mM DEA/NO or released DEA/NO.
FIG. 11 is a graph of surviving fraction versus concentration (μg/ml) of thiotepa in the absence or presence of 1 mM DEA/NO or released DEA/NO showing the survival curves for human MCF7 breast cancer cells exposed to thiotepa in the absence or presence of 1 mM DEA/NO or released DEA/NO.
as §1
Human breast cancer cells in log phase were exposed for 1 hr at 37° C. to varying concentrations of melphalan or thiotepa in the absence or presence of 1 mM DEA/NO or released DEA/NO. […] Cytotoxicity was evaluated using the clonogenic assay of Example 2.
FIGS. 10 and 11 are graphs of surviving fraction versus concentration (μg/ml) of melphalan and thiotepa, respectively.

## CCN(CC)/[N+]([O-])=N/[O-].[Na+] [DEA/NO]
[1]; 0.1 mM
  extent of radiosensitization: modest
[1]; 0.10 mM, ± SD
  SER: 1.1 ± 0.06
[1]; 0.50 mM, ± SD
  SER: 2.1 ± 0.40
[1]; 1.00 mM
  SER: 2.4
[1]; 2.0 mM
  effectiveness in eliminating radiation resistance due to hypoxia: just as effective as oxygen in eliminating radiation resistance due to hypoxia
[1]; 2.00 mM, ± SD
  SER: 2.9±0.4
[1]; 0.5 and 1.0 mM
  extent of radiosensitization: significant enhancement was observed
[2]; melphalan and thiotepa, 1 mM
  enhancement of chemosensitivity / cytotoxicity: significantly enhanced the chemosensitivity of human breast cancer cells to melphalan and thiotepa
[2]; melphalan
  DEA/NO enhancement ratio at the 10% surviving fraction level: 3.3
[2]; thiotepa
  DEA/NO enhancement ratio at the 10% surviving fraction level: 1.3
